Laboratory results from patent US20240002441A1, “PEPTIDES AND USES THEREOF IN MODULATION OF AMYLOID-BETA PROTEIN DEGRADING PROTEASES” (priority 2020, published 2024).

What was measured:
[1] = tested on: Ang II-induced expression of IL-6 and Collagen III in EA.hy926 cells; test: Ang II-induced expression of IL-6 and Collagen III in EA.hy926 cells, western blotting (Example 9); format: cell-based; settings: 24 h
Method: EA.hy926 cells (passage 40) were seeded at a density of 1×10^6 cells/mL. After 24 hours, cells were incubated overnight in reduced serum media. Cells were then treated over 24 h as follows: • 1. Vehicle control • 2. Ang II (10 nM) • 3. […] Ang II (10 nM)+rhACE2 (0.05 ng/μL) • 5.
Following incubation, cells were lysed using lysis buffer (Thermo Fisher Scientific, Cat #89900) containing 1% protease inhibitor (Thermo Fisher Scientific, Cat #1861278). Cell lysate was centrifuged at 13,000 rpm for 10 min. Protein concentration in the supernatant was determined by NanoDrop (Thermo Fisher Scientific, Cat #ND-1000). Supernatants were stored at −30° C. until analysed.
Samples were diluted in SDS-PAGE reducing sample buffer (Bio-Rad Laboratories, Cat #1610747; California, USA) containing 1% β-mercaptoethanol (Bio-Rad Laboratories, Cat #221610710) to reach a final concentration of […]. Prior to loading, samples were heated at 95° C. for 5 min. Samples were loaded into the wells alongside the molecular weight marker (Life Technologies, Cat #LC5800; California, USA). Electrophoresis was conducted at 200 V for 40 min in 1× running buffer. Following protein separation by SDS-PAGE, proteins were blotted onto nitrocellulose membranes at 100 V for 1 h in 1× transfer buffer. The membranes were then blocked in 5% skim milk in 1× Tris-buffered saline (TBST) containing 0.05% Tween 20 (Thermo Fisher Scientific, Cat #28352) for 1 h at room temperature. The membranes were incubated with IL-6 (1:500; Thermo Fisher Scientific, Cat #700480) or collagen III (1:500; Invitrogen, Cat #PA5-27828) primary antibodies while rocking at 4° C. overnight. Membranes were then probed with secondary antibody conjugated with horseradish peroxidase (HRP) (1:6000) for 1 h at room temperature. The HRP-labelled proteins were detected using chemiluminescence SuperSignal™ ECL Western Blotting Substrate (Thermo Fisher Scientific, Cat #34577) at 1:1 ratio. Beta-actin was used as a loading control. Protein bands were analysed using ImageJ (version 1.51) and band density was normalised with the respective beta-actin.

5×FAD transgenic mice = test: 5×FAD transgenic mouse model of Alzheimer's Disease (Example 15); format: in vivo
Method: All animal experiments were conducted in strict accordance with the Australian Code of Practice for the Care and Use of Animals for Scientific Purposes. Local approval was obtained from The University of Queensland's Animal Ethics Committee. All wild-type (WT) and transgenic mice (5×FAD tg) used were from the same litters to act as appropriate littermate controls. Thirty-four 2.5-3-month-old female and twenty-five 2.5-3-month-old male mice were used in this study. Animals were housed in groups of 3-5 animals per cage and maintained on a 12 hr light-dark cycle. Food and water were provided ad libitum.
All testing was conducted between 8 AM-6 PM, at approximately the same time each day. Prior to commencing any behavioural testing, mice were habituated to handling and handler smell to minimize handling-related stress. Each mouse was handled daily by the experimenter conducting the behavioural tasks for 30-s to 1-min each day. Handling involved picking up the mouse (by the base of the tail) from the home cage and placing in the palm of a gloved hand. This process was repeated daily, at approximately the same time each day, for a total of 8 days prior to testing. The bedding of the animals' home cage was not changed 2-days prior habituation to handling and for the duration of the behavioural tests. […]
The Active Place Avoidance (APA) task assessing longer-term spatial learning and memory was conducted on all mice as previously described (Willis E F, Bartlett P F, Vukovic J. Protocol for Short- and Longer-term Spatial Learning and Memory in Mice. Front Behav Neurosci. 2017; 11:197. https://doi:10.3389/fnbeh.2017.00197). The APA arena (Bio-Signal Group, NY, USA) consisted of a 77 cm diameter metal grid floor fenced by a 32 cm high Perspex clear circular boundary. The elevated arena sits directly below a digital video camera (Point Gray, USA) and in the middle of the room with visual cues placed on all 4 of the room walls. The visual cues consisted of black and white symbols printed on A3-sized paper. Visual cues were randomly chosen and kept constant for the 5-days of testing, and a different set of visual cues were used for post-2A treatment testing. Room lighting was set at 62-63% white light and light intensity recordings were taken by placing the luxmeter in the centre of the arena before the start of each session and kept between 60-70 lux.
The arena was set to rotate clockwise (1 rpm). The shock zone where a brief electric shock (500 ms, 0.5 mA, track-dependent) is delivered through the grid floor, is set at a 270° (pre-2A treatment) or 90° (post-2A treatment) angle and width of 60°. […] Mice were to actively avoid this shock zone while the arena rotates clockwise.
The position of the mouse in the arena was tracked using an overhead camera linked to Tracker software (Bio-Signal Group). When the centre-point of the mouse entered the shock zone, as tracked by the overhead camera linked to the tracking software, it received an electric shock. During the trials, the researcher sat quietly behind a curtain, out of view of the arena. After the completion of a trial, each mouse was returned to the home cage and the metal grid, clear Perspex boundary and underlying floor were cleaned with 70% ethanol. All scat and urine were removed following the completion of the trial.
Peptide of SEQ ID NO. 2 was dissolved in dimethyl sulfoxide (DMSO), and subsequently diluted in Dulbecco's phosphate-buffered saline (DPBS; 10% DMSO final). Pre-treatment open field/activity monitor data was used as the pseudorandomisation parameter for assigning animals to treatment groups. At 12-14 weeks, male and female 5×FAD and WT littermates were intranasally administered either 10% DMSO in DPBS as vehicle treatment or SEQ ID NO. 2 in DPBS (1 mg/kg). Treatment commenced immediately after the completion of pre-treatment behavioural testing and was administered every other day for 1 month. Body weight was measured every second day prior to intranasal dosing. […]

## H-SLFELGKMIL-NH2 [SEQ ID NO:2, H2N-SLFELGKMIL-NH2]
[1]; Ang II 10 nM plus 2A 26 μM and/or ACE2 0.05 ng/μL
  Collagen III expression compared to cells treated with Ang II alone: significantly lower
[1]; Ang II 10 nM plus peptide 26 μM and/or rhACE2 0.05 ng/μL
  IL-6 expression compared to cells treated with Ang II alone: significantly lower
[1]; EA.hy926 cells, Ang II 10 nM alone, or Ang II and 2A (26 μM)
  Collagen III expression: 28±6%
5×FAD transgenic mice; Tg mice, peptide versus vehicle
  active place avoidance behaviour, 5-day post-treatment performance: improved avoidance behavior
5×FAD transgenic mice; Tg mice, western blotting
  IL-6 protein level in the cortex compared to Tg mice treated with vehicle: reduction
  TNF-α protein level in the cortex compared to Tg mice treated with vehicle: reduction
5×FAD transgenic mice; WT or Tg mice treated with peptide
  number of shocks in the APA task at day 5 of testing, post-treatment versus pre-treatment: significantly more
5×FAD transgenic mice; between groups
  frequency of entry to the novel arm in y-maze test, as % of entries to all other arms, pre-treatment compared with post-treatment: did not show significant difference
  number of shocks received post-treatment: not significantly different
5×FAD transgenic mice; each group of mice, pre- versus post-treatment
  time in the centre in the open field/activity test: not significantly different
